# Assay results: PMC11118615, “Cloning, Expression, Characterization and Immobilization of a Recombinant Carboxylesterase from the Halophilic Archaeon, Halobacterium salinarum NCR-1” (Biomolecules, 2024)
# Biological target: T1, rHsEst (recombinant carboxylesterase HsEst) (Halobacterium salinarum, UniProt Q9HPT9)
# T1 construct: gene est; synthetic gene in pTA1392, N-terminal 6xHis-tag, expressed in Haloferax volcanii H1209, HisTrap purified
# Test: spectrophotometric p-nitrophenol release, Michaelis-Menten nonlinear fit
# Format: biochemical
# Settings: free enzyme; pH 8.0 Tris-HCl, 1 M NaCl, 30 °C (methods print 25 °C)
# Excerpt: spectrophotometric p-nitrophenol release, Michaelis-Menten nonlinear fit on rHsEst (recombinant carboxylesterase HsEst)
# T1 sequence (Q9HPT9 entry or part of it): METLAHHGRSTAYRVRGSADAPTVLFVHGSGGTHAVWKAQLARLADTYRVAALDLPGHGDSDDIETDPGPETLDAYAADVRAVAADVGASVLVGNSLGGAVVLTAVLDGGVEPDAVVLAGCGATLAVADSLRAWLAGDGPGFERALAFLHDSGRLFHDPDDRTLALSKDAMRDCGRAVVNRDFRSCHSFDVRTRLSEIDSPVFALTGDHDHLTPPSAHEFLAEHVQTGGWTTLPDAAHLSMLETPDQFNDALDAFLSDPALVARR
row,Km,SMILES
1,245 ± 26 µM,"CCCCCCCC(=O)Oc1ccc([N+](=O)[O-])cc1 [pNPC8, p-nitrophenyl octanoate]"
2,78 ± 7 µM,"CCCCC(=O)Oc1ccc([N+](=O)[O-])cc1 [pNPC5, p-nitrophenyl valerate]"
3,258 ± 51 µM,"CC(=O)Oc1ccc([N+](=O)[O-])cc1 [pNPC2, p-nitrophenyl acetate]"
